Assay results published in US6613747B2, “6-O-carbamoyl ketolide antibacterials” (Ortho-McNeil Pharmaceutical, Inc., priority 2000, dated 2003).
In brackets after ≈: the same amount, converted by molar mass.

Columns and labels:
Assay in all cases: MIC, microdilution broth method (NCCLS)
Assay type in all cases: cell-based
E. coli OC2605 = details: A: E. coli OC2605, 35° C., 16-20 hours
Procedure: (§1) Minimal inhibitory concentration (MIC) has been an indicator of in vitro antibacterial activity widely used in the art. The in vitro antimicrobial activity of the compounds was determined by the microdilution broth method following the test method from the National Committee for Clinical Laboratory Standards (NCCLS). This method is described in the NCCLS Document M7-A4, Vol. 17, No. 2, “Methods for Dilution Antimicrobial Susceptibility Test for Bacteria that Grow Aerobically—Fourth Edition”, which is incorporated herein by reference.
(§2) In this method two-fold serial dilutions of drug in cation adjusted Mueller-Hinton broth are added to wells in microdilution trays. The test organisms are prepared by adjusting the turbidity of actively growing broth cultures so that the final concentration of test organism after it is added to the wells is approximately 5×10^4 CFU/well.
(§3) Following inoculation of the microdilution trays, the trays are incubated at 35° C. for 16-20 hours and then read. […] The amount of growth in the wells containing the test compound is compared with the amount of growth in the growth-control wells (no test compound) used in each tray. As set forth in Table 1, compounds of the present invention were tested against a variety of Gram positive and Gram negative pathogenic bacteria resulting in a range of activities depending on the organism tested.

E. faecalis ATCC29212 = details: C: E. faecalis ATCC29212, 35° C., 16-20 hours
Procedure: as §1, §2, §3

H. influenzae ATCC49247 = details: E: H. influenzae ATCC49247, 35° C., 16-20 hours
Procedure: as §1, §2, §3

S. aureus ATCC29213 = details: B: S. aureus ATCC29213, 35° C., 16-20 hours
Procedure: as §1, §2, §3

S. pneumoniae ATCC49619 = details: D: S. pneumoniae ATCC49619, 35° C., 16-20 hours
Procedure: as §1, §2, §3

## CC[C@H]1OC(=O)[C@H](C)C(=O)[C@H](C)[C@@H](O[C@@H]2O[C@H](C)C[C@H](N(C)C)[C@H]2O)[C@](C)(OC(=O)NC/C=C/c2ccc(-c3ccncc3)cc2)C[C@@H](C)C(=O)[C@H](C)[C@H]2NC(=O)O[C@@]21C [Compound 26]
E. coli OC2605
  MIC: >16 µg/mL
E. faecalis ATCC29212
  MIC: 0.12 µg/mL (≈ 0.144 µM)
H. influenzae ATCC49247
  MIC: 2 µg/mL (≈ 2.4 µM)
S. aureus ATCC29213
  MIC: 0.5 µg/mL (≈ 0.599 µM)
S. pneumoniae ATCC49619
  MIC: 0.03 µg/mL (≈ 0.0359 µM)

## CC[C@H]1OC(=O)[C@H](C)C(=O)[C@H](C)[C@@H](O[C@@H]2O[C@H](C)C[C@H](N(C)C)[C@H]2O)[C@](C)(OC(=O)NC/C=C/c2ccc(-c3cncnc3)cc2)C[C@@H](C)C(=O)[C@H](C)[C@H]2NC(=O)O[C@@]21C [Compound 27]
E. coli OC2605
  MIC: 16 µg/mL (≈ 19.1 µM)
E. faecalis ATCC29212
  MIC: 0.12 µg/mL (≈ 0.144 µM)
H. influenzae ATCC49247
  MIC: 4 µg/mL (≈ 4.78 µM)
S. aureus ATCC29213
  MIC: 0.25 µg/mL (≈ 0.299 µM)
S. pneumoniae ATCC49619
  MIC: 0.06 µg/mL (≈ 0.0718 µM)

## CC[C@H]1OC(=O)[C@H](C)C(=O)[C@H](C)[C@@H](O[C@@H]2O[C@H](C)C[C@H](N(C)C)[C@H]2O)[C@](C)(OC(=O)NCc2ccc(-c3cncnc3)cc2)C[C@@H](C)C(=O)[C@H](C)[C@H]2NC(=O)O[C@@]21C [Compound 28]
E. coli OC2605
  MIC: 16 µg/mL (≈ 19.8 µM)
E. faecalis ATCC29212
  MIC: 0.06 µg/mL (≈ 0.0741 µM)
H. influenzae ATCC49247
  MIC: 4 µg/mL (≈ 4.94 µM)
S. aureus ATCC29213
  MIC: 0.25 µg/mL (≈ 0.309 µM)
S. pneumoniae ATCC49619
  MIC: 0.03 µg/mL (≈ 0.037 µM)

## CC[C@H]1OC(=O)[C@H](C)C(=O)[C@H](C)[C@@H](O[C@@H]2O[C@H](C)C[C@H](N(C)C)[C@H]2O)[C@](C)(OC(=O)NCC#Cc2cnc3ccccc3c2)C[C@@H](C)C(=O)[C@H](C)[C@H]2NC(=O)O[C@@]21C [Compound 29]
E. coli OC2605
  MIC: 16 µg/mL (≈ 19.8 µM)
E. faecalis ATCC29212
  MIC: 0.06 µg/mL (≈ 0.0744 µM)
H. influenzae ATCC49247
  MIC: 2 µg/mL (≈ 2.48 µM)
S. aureus ATCC29213
  MIC: 0.5 µg/mL (≈ 0.62 µM)
S. pneumoniae ATCC49619
  MIC: 0.03 µg/mL (≈ 0.0372 µM)

## CC[C@H]1OC(=O)[C@H](C)C(=O)[C@H](C)[C@@H](O[C@@H]2O[C@H](C)C[C@H](N(C)C)[C@H]2O)[C@](C)(OC(=O)NC/C=C/c2ccncc2)C[C@@H](C)C(=O)[C@H](C)[C@H]2NC(=O)O[C@@]21C [Compound 30]
E. coli OC2605
  MIC: 16 µg/mL (≈ 21.1 µM)
E. faecalis ATCC29212
  MIC: 0.12 µg/mL (≈ 0.158 µM)
H. influenzae ATCC49247
  MIC: 2 µg/mL (≈ 2.64 µM)
S. aureus ATCC29213
  MIC: 0.5 µg/mL (≈ 0.659 µM)
S. pneumoniae ATCC49619
  MIC: 0.03 µg/mL (≈ 0.0395 µM)

## CC[C@H]1OC(=O)[C@H](C)C(=O)[C@H](C)[C@@H](O[C@@H]2O[C@H](C)C[C@H](N(C)C)[C@H]2O)[C@](C)(OC(=O)NCc2ccc(-c3ncccn3)cc2)C[C@@H](C)C(=O)[C@H](C)[C@H]2NC(=O)O[C@@]21C [Compound 31]
E. coli OC2605
  MIC: 16 µg/mL (≈ 19.8 µM)
E. faecalis ATCC29212
  MIC: 0.06 µg/mL (≈ 0.0741 µM)
H. influenzae ATCC49247
  MIC: 2 µg/mL (≈ 2.47 µM)
S. aureus ATCC29213
  MIC: 0.25 µg/mL (≈ 0.309 µM)
S. pneumoniae ATCC49619
  MIC: 0.03 µg/mL (≈ 0.037 µM)

## CC[C@H]1OC(=O)[C@H](C)C(=O)[C@H](C)[C@@H](O[C@@H]2O[C@H](C)C[C@H](N(C)C)[C@H]2O)[C@](C)(OC(=O)NCc2ccc(-c3cc[nH]n3)cc2)C[C@@H](C)C(=O)[C@H](C)[C@H]2NC(=O)O[C@@]21C [Compound 39]
E. coli OC2605
  MIC: >16 µg/mL
E. faecalis ATCC29212
  MIC: 0.12 µg/mL (≈ 0.15 µM)
H. influenzae ATCC49247
  MIC: 1 µg/mL (≈ 1.25 µM)
S. aureus ATCC29213
  MIC: 1 µg/mL (≈ 1.25 µM)
S. pneumoniae ATCC49619
  MIC: 0.06 µg/mL (≈ 0.0752 µM)

## CC[C@H]1OC(=O)[C@H](C)C(=O)[C@H](C)[C@@H](O[C@@H]2O[C@H](C)C[C@H](N(C)C)[C@H]2O)[C@](C)(OC(=O)NC/C=C/c2ccc3nccnc3c2)C[C@@H](C)C(=O)[C@H](C)[C@H]2NC(=O)O[C@@]21C [Compound 41]
E. coli OC2605
  MIC: 16 µg/mL (≈ 19.8 µM)
E. faecalis ATCC29212
  MIC: 0.12 µg/mL (≈ 0.148 µM)
H. influenzae ATCC49247
  MIC: 1 µg/mL (≈ 1.23 µM)
S. aureus ATCC29213
  MIC: 0.25 µg/mL (≈ 0.309 µM)
S. pneumoniae ATCC49619
  MIC: 0.03 µg/mL (≈ 0.037 µM)

## CC[C@H]1OC(=O)[C@H](C)C(=O)[C@H](C)[C@@H](O[C@@H]2O[C@H](C)C[C@H](N(C)C)[C@H]2O)[C@](C)(OC(=O)NCc2ccc(-c3ccc([N+](=O)[O-])cn3)cc2)C[C@@H](C)C(=O)[C@H](C)[C@H]2NC(=O)O[C@@]21C [Compound 42]
E. coli OC2605
  MIC: 16 µg/mL (≈ 18.7 µM)
E. faecalis ATCC29212
  MIC: 0.12 µg/mL (≈ 0.141 µM)
H. influenzae ATCC49247
  MIC: 1 µg/mL (≈ 1.17 µM)
S. aureus ATCC29213
  MIC: 0.5 µg/mL (≈ 0.586 µM)
S. pneumoniae ATCC49619
  MIC: 0.12 µg/mL (≈ 0.141 µM)
